Results published in US6375999B1, “Methods for treating potatoes” (priority 1993, dated 2002).

Key:
[1] = tested on: freshly dug potatoes; assay: outdoor pile of injured, freshly dug potatoes sprayed with pure 1,4-dimethyl naphthalene; assay type: in vivo, potato; conditions: outdoors, humidity about 40%, no control sample
Excerpt: A pile of freshly dug potatoes having considerable injuries such as cuts, scrapes and abrasions were sprayed with pure 1,4-dimethyl naphthalene. The pile was located outdoors with a humidity condition of about 40%. […] Although a control sample wasn't used, potatoes with such a large quantity of cuts, abrasions and the like in an exposed, low humidity environment would typically show minimal healing and a considerable amount of rot.

[2] = tested on: stored potatoes; assay: low humidity storage after early treatment with 1,4-DMN; assay type: in vivo, potato; conditions: storage conditions of 85%, and less
Excerpt: No approved method exists for treating silver scruff. Effective fungicides are not approved for treatment of potatoes. […] A disadvantage of low humidity storage is that such potatoes dehydrate and soften. This causes the potatoes to be less acceptable for certain markets and results in some loss of product.

[3] = tested on: potatoes which have started to sprout; assay: treatment of potatoes which have started to sprout; assay type: in vivo, potato; conditions: certain types of potatoes which have started to sprout
Excerpt: For example, in treating a potato storage facility with liquid sprout inhibitor such as an isomer of DMN, especially the 1,4 and 1,6 isomers of DMN, it is only necessary to have a very low concentration of DMN in the atmosphere inasmuch as the quantity of DMN in a potato is very low so that only very minor quantities of DMN respire or exit the potato. Thus, only a very low partial pressure for DMN is created in a static air space surrounding a potato by respiration. The purpose of DMN in the atmosphere surrounding potatoes is to stop or reduce the exiting of DMN from the potato. Once DMN exiting starts, it is believed that such departure initiates the process which leads to sprouting. […] Thus, in applying liquid sprout inhibitors which are found natively in potatoes it is generally preferred to initiate treatment prior to the onset of sprouting and preferably prior to any considerable exiting of DMN, for example, from the stored potato.
Although, as indicated in the Plant patent, CIPC is not applied until after suberization (wound healing). DMN is preferably applied initially shortly after the potatoes have been put into the facility. […] Also, unlike CIPC, DMN is not a foreign material to a potato.

[4] = tested on: stored potatoes; conditions: early application to stored potatoes; cited from earlier work

| Structure (SMILES) | evidence of rot in injured potatoes ([1]; about two days after spraying) | time after spraying until suberization processes appeared to be complete ([1]; pure compound sprayed) | hydration and firmness of potatoes in low humidity storage [2] | effect on sprouting once sprouting has been initiated [3] | effect on suberization [4] |
| --- | --- | --- | --- | --- | --- |
| Cc1ccc(C)c2ccccc12 [1,4-dimethyl naphthalene] | only a small portion of the injured potatoes showing any evidence of rot | two | stay hydrated and firm |  |  |
| CC(C)OC(=O)Nc1cccc(Cl)c1 [CIPC, Chloroisopropyl-N-carbamate] |  |  |  | generally retard potato sprouting even after sprouting has been initiated | tends to retard suberization |
